Measurements published in patent US20220273005A1, “METHOD OF INDUCING BACTERIAL HEAT SENSITIVITY” (THE STATE OF ISRAEL, MINISTRY OF AGRICULTURE & RURAL …, priority 2019, published 2022).

Tests used:
[1] = tested on: Bacillus subtilis ΔclsA and ΔclsB mutants; assay: Rescue of the biofilm phenotype of the cls mutants by added CL; format: cell-based; conditions: 10-fold serial dilutions of CL in the medium; data not shown
Method: Three kinds of biofilms were tested—colony type, pellicle and bundles. For colony type—bacteria were grown in LB medium for 5h and then 3-5 μl of the culture were spotted on an LB-GM (1% tryptone, 0.5% yeast extract, 0.5% NaCl, 1% glycerol, 0.1 mM MnSO4 and 2% agar) (Difco) or modified MRS (MMRS—MRS pH 7) (Man, Rogosa & Sharpe) (Hy-labs) plates. Once the spotted drops were soaked into the medium, the plates were incubated upside down at 30° C. for 72 h. For pellicle biofilm formation 24-well plates were used. Bacteria were grown in LB medium for 5 h and then the culture was diluted 1:1000 into MMRS. Next, plates were incubated at 30° C., 20 rpm for 48 h. For the experiments with supplementation of CL, 0-100 μM CL dissolved in chloroform was added (final concentration of chloroform was 0.2%). For bundle type biofilm, a starter culture was prepared using a single bacterial colony inoculated into 5 ml of LB medium overnight at 30° C., 150 rpm. Next, bacteria were diluted 1:100 into fresh MMRS at 37° C., 25 rpm and after 5-7 h a 1 ml sample was taken and washed twice with sterile water. For longer incubation times, a starter culture was prepared using a single bacterial colony inoculated into 3 ml of LB medium for 5 h at 37° C., 150 rpm. Next, bacteria were diluted 1:100 into fresh MMRS at 23° C., 25 rpm overnight. The samples were visualized by fluorescence microscopy. […]

[2] = tested on: Bacillus subtilis YC189 (PtapA-cfp) bundle biofilm; assay: Bundle biofilm formation and tapA promoter (PtapA-cfp) activity with CL added, fluorescence microscopy; format: cell-based
Method: Three kinds of biofilms were tested—colony type, pellicle and bundles. For colony type—bacteria were grown in LB medium for 5h and then 3-5 μl of the culture were spotted on an LB-GM (1% tryptone, 0.5% yeast extract, 0.5% NaCl, 1% glycerol, 0.1 mM MnSO4 and 2% agar) (Difco) or modified MRS (MMRS—MRS pH 7) (Man, Rogosa & Sharpe) (Hy-labs) plates. Once the spotted drops were soaked into the medium, the plates were incubated upside down at 30° C. for 72 h. For pellicle biofilm formation 24-well plates were used. Bacteria were grown in LB medium for 5 h and then the culture was diluted 1:1000 into MMRS. Next, plates were incubated at 30° C., 20 rpm for 48 h. For the experiments with supplementation of CL, 0-100 μM CL dissolved in chloroform was added (final concentration of chloroform was 0.2%). For bundle type biofilm, a starter culture was prepared using a single bacterial colony inoculated into 5 ml of LB medium overnight at 30° C., 150 rpm. Next, bacteria were diluted 1:100 into fresh MMRS at 37° C., 25 rpm and after 5-7 h a 1 ml sample was taken and washed twice with sterile water. For longer incubation times, a starter culture was prepared using a single bacterial colony inoculated into 3 ml of LB medium for 5 h at 37° C., 150 rpm. Next, bacteria were diluted 1:100 into fresh MMRS at 23° C., 25 rpm overnight. The samples were visualized by fluorescence microscopy.
(§1) For visualization of bundle type biofilm a 1 ml sample was taken and washed twice with sterile water. Next Nonyl Acridine Orange (NAO) (Invitrogen A1372) was added to a final concentration of 100 nM for a 20 minutes incubation at room temperature. Next 3-7 μl from each sample were loaded on a microscopy glass slide. The samples were visualized using a fluorescent microscope in a transmitted light microscope using differential interference contrast (DIC) and 426-450 nm laser for CFP excitation (for visualization of YC189) or 457 nm-487 nm laser for GFP excitation (for visualization of NAO stained samples) (Nikon Eclipse Ti2).

[3] = tested on: Bacillus subtilis NCIB 3610 pellicle biofilm; assay: Pellicle biofilm formation with CL added to the medium; format: cell-based; conditions: FIG. 5A
Method: Three kinds of biofilms were tested—colony type, pellicle and bundles. For colony type—bacteria were grown in LB medium for 5h and then 3-5 μl of the culture were spotted on an LB-GM (1% tryptone, 0.5% yeast extract, 0.5% NaCl, 1% glycerol, 0.1 mM MnSO4 and 2% agar) (Difco) or modified MRS (MMRS—MRS pH 7) (Man, Rogosa & Sharpe) (Hy-labs) plates. Once the spotted drops were soaked into the medium, the plates were incubated upside down at 30° C. for 72 h. For pellicle biofilm formation 24-well plates were used. Bacteria were grown in LB medium for 5 h and then the culture was diluted 1:1000 into MMRS. […] For the experiments with supplementation of CL, 0-100 μM CL dissolved in chloroform was added (final concentration of chloroform was 0.2%). For bundle type biofilm, a starter culture was prepared using a single bacterial colony inoculated into 5 ml of LB medium overnight at 30° C., 150 rpm. Next, bacteria were diluted 1:100 into fresh MMRS at 37° C., 25 rpm and after 5-7 h a 1 ml sample was taken and washed twice with sterile water. For longer incubation times, a starter culture was prepared using a single bacterial colony inoculated into 3 ml of LB medium for 5 h at 37° C., 150 rpm. Next, bacteria were diluted 1:100 into fresh MMRS at 23° C., 25 rpm overnight. The samples were visualized by fluorescence microscopy.

[4] = tested on: B. subtilis (WT 3610); assay: Combined effect of CL and surfactin on pellicle formation, NAO staining; format: cell-based, Bacillus subtilis; conditions: high concentration (50 μM), about 20 h, FIG. 6
Method: as §1
B. subtilis (WT 3610) was grown for 5 h at 37° C., 150 rpm according to the conditions described above. Then 2 μl of bacteria were added to 1 ml LBG accompanied by solutions with different concentrations of CL and surfactin. After about 20 h the samples were stained with NAO (according to the protocol described herein), which was added to the unwashed samples. Finally, the samples were washed after the staining and the pellicle formation was tested.

[5] = tested on: Bacillus subtilis wt; conditions: wt strain with Mg2+ ions; previously shown; cited from earlier work
[6] = tested on: Bacillus subtilis wt; conditions: wt strain with Mg2+ ions; previously shown; cited from earlier work; remark: listed apart in the source
[7] = CL 10 μM and 100 μM, after 12 h, YC189, FIG. 5B

| Molecule | rescue of the mutants' biofilm phenotype [1] | biofilm (bundle) formation [2, 7] | stimulation of the tapA operon (PtapA-cfp) [2, 7] | biofilm formation ([2]; CL 10 μM, after 18 h, YC189, FIG. 5C) | biofilm (bundle) formation ([2]; high concentrations of CL, after 18 h, YC189, FIG. 5C) | biofilm formation (pellicle) ([3]; CL 50 μM, 18 h post treatment) | pellicle biofilm formation ([3]; CL 5-50 μM, after 18 hours) | string-like structures connecting the bacteria [4] | sensitivity to heat treatments [5] | biofilm formation [6] |
| --- | --- | --- | --- | --- | --- | --- | --- | --- | --- | --- |
| cardiolipin [CL] | not able to rescue | biofilm is not formed | not stimulated | substantially reduced | bundles start to form | reduced biofilm formation | delay in pellicle biofilm formation | string-like structures connecting the bacteria have been observed |  |  |
| [Mg+2] [Mg^2+ ions] |  |  |  |  |  |  |  |  | more sensitive to heat treatments | biofilm is not formed |
